Assay results from patent US12268777B2, “Compositions and methods for treating eosinophilic disorders” (The Regents of the University of California, priority 2019, dated 2025).

Assays:
[1] = test system: EoE-derived primary esophageal fibroblasts; test: Western immunoblot of pro-fibrotic protein expression in EoE-derived esophageal fibroblasts; assay type: cell-based, human
Experimental: Reagents, human esophageal tissues, and primary human esophageal fibroblast isolation TGF-β1 (5 ng/mL; R&D Systems, Minneapolis, MN), rosiglitazone (20 μM; Abcam, Boston, MA), pioglitazone (20 μM; Sigma-Aldrich, St. Louis, MO), budesonide (0.1 μM; St. Louis, MO), and IL-4 (10 ng/mL; R&D Systems, Minneapolis, MN) were used in cell culture experiments. […] Active EoE was defined as greater than or equal to 15 eosinophils per hpf. Human organ transplant donor esophagi served as normal controls and were provided by the National Disease Research Interchange and the Arkansas Regional Organ Recovery Agency Control. […]
Adherent cells were washed with ice-cold phosphate-buffered saline containing 1 mM sodium orthovanadate (Na3VO4) and lysed in ice-cold RIPA lysis buffer freshly prepared and supplemented with 1 mM Na3VO4, complete protease inhibitor cocktail, and 2 mM phenylmethylsulfonyl fluoride. […] Equivalent amounts of total proteins were loaded into each well and electrophoresed on NuPAGE 4-12% Bis-Tris gels (Life Technologies, Grand Island, NY), transferred to polyvinylidene difluoride membranes, blocked with 5% bovine serum albumin, incubated with primary antibodies overnight (1:1,000) at 4° C., detected using species-appropriate horseradish peroxidase-conjugated secondary antibodies, and quantified as previously described (Rawson et al., J. Allergy Clin. Immunol., 138:791-800, 2016).

[2] = test system: nonalcoholic steatohepatitis (NASH); settings: compared to placebo; cited from earlier work
[3] = in vivo; cited from earlier work
[4] = test system: normal esophageal fibroblasts; test: Western immunoblot of pro-fibrotic protein expression in normal esophageal fibroblasts; assay type: cell-based, human; settings: 20 μM, N=3
Experimental: Cell culture and stimulation.
Western immunoblot analysis. Adherent cells were washed with ice-cold phosphate-buffered saline containing 1 mM sodium orthovanadate (Na3VO4) and lysed in ice-cold RIPA lysis buffer freshly prepared and supplemented with 1 mM Na3VO4, complete protease inhibitor cocktail, and 2 mM phenylmethylsulfonyl fluoride. Whole cell lysates were centrifuged at 14,000 g for 15 minutes at 4° C.

[5] = test system: EoE-derived primary esophageal fibroblasts; test: qPCR of pro-fibrotic gene expression in EoE-derived esophageal fibroblasts stimulated with TGF-β1; settings: at the concentrations used, up to 20 μM
Experimental: Reagents, human esophageal tissues, and primary human esophageal fibroblast isolation TGF-β1 (5 ng/mL; R&D Systems, Minneapolis, MN), rosiglitazone (20 μM; Abcam, Boston, MA), pioglitazone (20 μM; Sigma-Aldrich, St. Louis, MO), budesonide (0.1 μM; St. Louis, MO), and IL-4 (10 ng/mL; R&D Systems, Minneapolis, MN) were used in cell culture experiments.
Cell culture and stimulation. Human esophageal fibroblast cells were matched as closely as possible for sex, race, and passage. At sub-confluence, cells were serum starved overnight and treated with a TZD, budesonide, a combination, or vehicle for 2-3 hours followed by incubation with TGF-β1 or vehicle.
Preparation of total RNA and cDNA and quantitative PCR. Total RNA from fibroblast cultures was extracted using RNA STAT-60 (Tel-Test, Inc., Friendswood, TX) protocol, and oligo(dT)-primed cDNA was synthesized as previously described using the Qiagen RT-PCR kit and manufacturer's instructions. Quantitative real-time PCR (qPCR) primers are listed in Table 3; qPCR was carried out as previously described using the appropriate gene-specific primers, and relative gene expression was calculated using the method, with glyceraldehyde 3-phosphate dehydrogenase (gapdh) as the housekeeping gene (Rawson et al., J. Allergy Clin. Immunol., 138:791-800, 2016).

| SMILES | TGFβ1-induced protein expression of collagen-1α1 ([1]; EoE fibroblasts from 2 patients, budesonide 0.1 μM) | drug-related adverse events [2] | tolerability [2] | cardiac effect [3] | basal protein expression of α-sma ([1]; EoE fibroblasts, 20 μM) | TGF-β1-induced protein expression of collagen-1α1 [4] | TGF-β1-induced protein expression of α-sma [4] | toxicity (housekeeper gene expression, responses in normal fibroblasts) [5] |
| --- | --- | --- | --- | --- | --- | --- | --- | --- |
| CCCC1O[C@@H]2C[C@H]3[C@@H]4CCC5=CC(=O)C=C[C@]5(C)[C@H]4[C@@H](O)C[C@]3(C)[C@]2(C(=O)CO)O1 (stereo partly drawn) [budesonide, 16,17-(butylidenebis(oxy))-11,21-dihydroxy-, (11-β,16-α)-pregna-1,4-diene-3,20-dione] | no effects |  |  |  |  |  |  |  |
| CCc1ccc(CCOc2ccc(CC3SC(=O)NC3=O)cc2)nc1 (stereo not drawn) [pioglitazone] |  | no major drug-related adverse events | well tolerated | cardioprotective effect |  |  |  |  |
| CN(CCOc1ccc(CC2SC(=O)NC2=O)cc1)c1ccccn1 (stereo not drawn) [rosiglitazone] |  |  |  | myocardial infarction risk was subsequently disproven | did not inhibit | did not inhibit | did not inhibit | not due to toxicity |
